From BindingDB's records for doi:10.1016/0922-4106(95)90043-8 (Uppsala, 1995)
Non-standard residues stand in square brackets, D forms with d. Residues, ends and D or L forms follow the SMILES beside them. Met(O2) = CS(=O)(=O)CC[C@H](N)C(=O)O

Experiments:
[1] = target: Melanocyte-stimulating hormone receptor (Homo sapiens, UniProt Q01726)
Melanocortin receptor 5 = Melanocortin receptor 5 (Homo sapiens, UniProt P33032)
Melanocortin receptor 3 = Melanocortin receptor 3 (Homo sapiens, UniProt P41968)
Melanocortin receptor 3, sequence (P41968 whole entry): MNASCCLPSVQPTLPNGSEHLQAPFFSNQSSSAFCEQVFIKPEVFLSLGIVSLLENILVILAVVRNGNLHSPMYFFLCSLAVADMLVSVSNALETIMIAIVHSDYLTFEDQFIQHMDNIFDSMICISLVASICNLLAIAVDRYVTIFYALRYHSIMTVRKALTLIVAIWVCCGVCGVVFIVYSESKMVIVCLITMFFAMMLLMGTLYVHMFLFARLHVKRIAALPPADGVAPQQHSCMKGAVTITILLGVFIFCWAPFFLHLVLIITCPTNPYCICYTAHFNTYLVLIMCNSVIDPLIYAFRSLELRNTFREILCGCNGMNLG

Melanocyte-stimulating hormone receptor, sequence (Q01726 whole entry): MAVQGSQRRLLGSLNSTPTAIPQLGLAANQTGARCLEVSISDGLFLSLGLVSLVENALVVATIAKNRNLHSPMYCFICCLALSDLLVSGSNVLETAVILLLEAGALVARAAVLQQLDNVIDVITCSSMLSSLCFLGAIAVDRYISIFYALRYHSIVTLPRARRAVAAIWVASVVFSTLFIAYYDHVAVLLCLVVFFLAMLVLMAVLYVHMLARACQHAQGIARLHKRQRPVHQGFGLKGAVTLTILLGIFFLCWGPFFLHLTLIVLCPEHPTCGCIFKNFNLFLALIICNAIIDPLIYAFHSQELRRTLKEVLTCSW
Melanocortin receptor 5, sequence (P33032 whole entry): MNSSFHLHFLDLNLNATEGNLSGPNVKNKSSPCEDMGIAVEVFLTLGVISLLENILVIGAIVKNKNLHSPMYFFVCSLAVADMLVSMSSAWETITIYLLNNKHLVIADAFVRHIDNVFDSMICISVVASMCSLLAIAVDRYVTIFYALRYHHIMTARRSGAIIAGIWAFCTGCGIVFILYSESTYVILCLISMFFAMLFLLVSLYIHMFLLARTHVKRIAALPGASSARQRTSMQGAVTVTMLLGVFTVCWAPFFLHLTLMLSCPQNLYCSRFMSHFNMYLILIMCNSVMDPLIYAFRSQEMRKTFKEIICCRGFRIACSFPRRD

Row | Ki [1] [nM] | Ki (Melanocortin receptor 5) [nM] | Ki (Melanocortin receptor 3) [nM] | Molecule
1 | 1.39 | > 10000 | 10.9 | H-YVMGHFRWDRFGRRNGSSSSGVGGAAQ-OH [Gamma3-MSH]
2 | 2.5 | > 10000 | 86.9 | H-SYSMEHFRWGKPVGKKRRPVKVYPNGAEDESAEAFPLEF-OH [ACTH]
3 |  | > 10000 | 145 | CSCC[C@H](NC(=O)[C@H](CO)NC(=O)[C@H](Cc1ccc(O)cc1)NC(=O)[C@@H](N)CO)C(=O)N[C@@H](CCC(=O)O)C(=O)N[C@@H](Cc1cnc[nH]1)C(=O)N[C@@H](Cc1ccccc1)C(=O)N[C@@H](CCCNC(=N)N)C(=O)N[C@@H](Cc1c[nH]c2ccccc12)C(=O)NCC(N)=O [ACTH-(1-10)]
4 | 106 | > 10000 | 784 | CSCC[C@H](N)C(=O)N[C@@H](CCC(=O)O)C(=O)N[C@@H](Cc1cnc[nH]1)C(=O)N[C@@H](Cc1ccccc1)C(=O)N[C@@H](CCCNC(=N)N)C(=O)N[C@@H](Cc1c[nH]c2ccccc12)C(=O)NCC(N)=O [NSC_123787]
5 | 2.68 |  |  | CSCC[C@H](NC(=O)[C@@H](NC(=O)[C@@H](N)Cc1ccc(O)cc1)C(C)C)C(=O)NCC(=O)N[C@@H](Cc1cnc[nH]1)C(=O)N[C@@H](Cc1ccccc1)C(=O)N[C@@H](CCCN=C(N)N)C(=O)N[C@@H](Cc1c[nH]c2ccccc12)C(=O)N[C@@H](CC(=O)O)C(=O)N[C@@H](CCCN=C(N)N)C(=O)N[C@@H](Cc1ccccc1)C(N)=O [Gamma1-MSH]
6 | > 10000 | > 10000 | > 10000 | H-SMEVRGW-OH [delta MSH]
7 | > 10000 | > 10000 | > 10000 | CS(=O)(=O)CC[C@H](N)C(=O)N[C@@H](CCC(=O)O)C(=O)N[C@@H](Cc1c[nH]cn1)C(=O)N[C@@H](Cc1ccccc1)C(=O)N[C@H](CCCCN)C(=O)N[C@@H](Cc1ccccc1)C(=O)O [CAS_50913-82-1] (H-[Met(O2)]EHF[dK]F-OH)
